“Also recorded” adds a separate entry of the source.
How the values were obtained:
Format in all cases: in vivo, chickens (Gallus gallus)
[1] = test system: AMR genes in the cecum microbiome; experiment: AMR gene abundance analysis (AMR++ pipeline) of cecal microbiome; details: day 35 cecum; for AMR gene classes changed compared to controls: Mann-Whitney U p-value<0.05; for total number of different AMR genes detected: compared to control; for total AMR gene abundance compared to control: RPKM
Protocol: AMR gene abundances per sample were determined using the AMR++ pipeline (Lakin, S. M. et al., Nucleic Acids Res 45, D574-D580 (2017)) (v. 2.0.2) starting from the raw metagenomics sequences and using the MegaRes (v. 2.0.0) database. Only genes involved in drug resistance were considered. The AMR gene counts per sample obtained from AMR++ were expressed in unites of reads per kilobase per million reads (RPKM) based on the corresponding gene lengths from the MegaRes database. RPKM values across treatments were compared using the Mann-Whitney U test.

cecal microbiome [2] = experiment: 16S rRNA amplicon profiling of cecal microbiome of AGP treated broilers; details: days 21 and 35
Protocol: Total DNA from frozen cecal content samples were extracted using the Lysis and Purity kit (Shoreline Biome, Farmington, CT) following the manufacturer's protocol. The resulting DNA was used for library preparation with the Shoreline Biome V4 16S DNA Purification and Library Prep Kit (Shoreline Biome, Farmington, CT). PCR amplification of the V4 region of the 16S rRNA gene was performed using the 515F (5′[…]) and 806R (5′-[…]) primers. The resulting amplicons were then sequenced using 2×250 bp paired-end kits on the Illumina MiSeq platform.
Paired raw reads were processed with cutadapt (v. 2.5) (Martin, M. Cutadapt 2011 17, 3, doi: 10.14806/ej. 17.1.200 (2011)) followed by DADA2 (v.1.12.1) (Callahan et al., Nat Methods 13, 581-581 (2016)) to generate a matrix of read counts per sample at the level of amplicon sequence variants (ASVs). […] Reads assigned to the Vibrionaceae family were removed from the analysis, these correspond to a small amount (˜1% relative abundance) of Vibrio harveyii that was spiked in some of the samples. The mean sequencing depth after filtering was 43,955 reads per sample (standard deviation=12,391). The Chao, Simpson, and Shannon measures of alpha diversity were calculated from the matrix of raw counts using the scikit-bio (v. 0.5.6) python package and compared across treatments at each sampling time using the Mann-Whitney U test. […]

cecal microbiome [3] = experiment: Shotgun metagenomics (functional/taxonomic profiles, GSEA) of cecal microbiome, day 35 broilers; details: for functional processes enriched in cecal microbiome relative to controls (GSEA): day 35 cecal samples
Protocol: 74 frozen cecal samples from day 35 birds were sent to CosmosID (Rockville, MD) for shotgun metagenomics sequencing. DNA was extracted using the ZymoBIOMICS DNA Miniprep Kit (ZymoBIOMICS, Irvine, CA) according to the manufacturers protocol. The isolated DNA was quantified by Qbit (ThermoFisher, Coon Rapids, MN). DNA libraries were prepared using the Illumina Nextera XT library preparation kit (Illumina, San Diego, CA), with a modified protocol. Libraries were then sequenced on an Illumina HiSeq platform 2×150 bp.
Reads were trimmed and Illumina adapters removed using Trimmomatic (v 0.39) (Bolger et al., Bioinformatics 30, 2114-2120 (2014)) with options SLIDINGWINDOW:5:20 LEADING:3 TRAILING:3. Host reads (Gallus gallus, GenBank assembly GCA_000002315) and spike-in reads from Vibrio harveyii (ATCC 14126) were removed using Bowtie2 (v. 2.3.5.1) (Langmead et al., Nat Methods 9, 357-359 (2012)).
Taxonomic profiling of individual reads was carried out using Kaiju (v. 1.7.3) (Menzel et al., Nat Commun 7, 11257 (2016)) with the nr_euk database. Kaiju outputs were summarized for each read as the number of bases aligned to proteins in the reference database. In cases of individual reads mapping to more than one taxonomic group, the number of bases assigned to each taxon was calculated as the alignment length (in base pairs) multiplied by the fraction of bases assigned unambiguously to said taxon out of all the taxa to which the read mapped. The numbers of assigned bases per read were used to estimate species-level relative abundances using metametamerge (v. 1.1) (Piro, V. C., et al., Microbiome 5, 101 (2017).) taking into account the average coding length per species in the nr_euk database.
Functional profiling was done by first assembling the reads from each sample into contigs using Spades (v. 3.13.1, option --meta) (Nurk, S. et al., Genome Res 27, 824-834 (2017)), with default parameters, followed by protein prediction with Prokka (v. 1.14.5) (Seemann, T. Prokka: Bioinformatics 30, 2068-2069 (2014).). Predicted protein sequences were aligned to a reference database and using Diamond (v. 0.9.30) (Buchfink, B. et al. Nat Methods 18, 366-368 (2021)) and annotated based on the function assigned to the top hit in the database. To avoid misannotations, (Plata, G. et al. Nat Chem Biol 8, 848-854 (2012)) the inventors only considered hits with at least 70% identity and 70% query coverage. The reference database was built starting from 46,181 complete bacterial genomes downloaded from the PATRIC (Davis, J. J. et al. Nucleic Acids Res 48, D606-D612 (2020)) database representing at most 10 genomes per species from ˜400 taxonomic families including those most frequently observed in broiler microbiomes. To speed up functional annotations, protein sequences within each family in the database were clustered at 90% sequence identity using CD-HIT (v. 4.8.1) (Huang, Y. et al. Bioinformatics 26, 680-682 (2010)) and the longest sequence from each cluster was kept for the diamond search.
To quantify the abundance of each function per sample, reads were mapped to the corresponding contigs using BWA (v. 0.7.17) (Li, H. & Durbin, R. Bioinformatics 25, 1754-1760 (2009)), and reads mapping to each predicted protein were counted with HTseq (v. 0.11.3) (Anders, S. et al. Bioinformatics 31, 166-169 (2015)). Read counts per RAST functional role were TPM normalized based on the Prokka protein lengths (Zhao, S. et. al. RNA 26, 903-909 (2020)) and expressed in units of mean copy numbers per genome by calculating a normalization factor such that the median abundance of a set of universal-single copy bacterial genes (Creevey, C. J. et al. PLOS One 6, e22099 (2011)) was set to 1 (Manor, O. & Borenstein, E. Genome Biology 16, 53 (2015)). A similar procedure was used to produce a copy-number normalized matrix of functional roles across samples stratified by the bacterial genera of the protein hits used to transfer functional annotations. […]

Ross 708 male broilers = experiment: Clinical study of in-feed AGPs in broilers: weight gain and feed conversion; details: in-feed: 50 g/ton BMD, 20 g/ton avilamycin, 16.5 g/ton virginiamycin, 70 g/ton narasin; 35 days
Source text: 500 healthy Ross 708 male broilers sourced from a commercial hatchery were used in the experiment. […] Birds were individually tagged with a unique identifier and were randomly assigned to one of 25 floor pens (20 animals per pen). Groups of 5 pens were assigned to each of 5 different treatments. The 5 treatments included: 1) control birds fed least-cost diets as follows: A starter diet was fed from days 0 to 14 of the study, followed by a grower diet (14-28d) and a finisher diet (28-35d). 2) Birds fed the above diets supplemented with 50 g/ton BMD. 3) Supplemented with 20 g/ton avilamycin. 4) Supplemented with 16.5 g/ton Virginiamycin. And 5) supplemented with 70 g/ton narasin. Birds were raised for 35 days in a barn on top of used litter.
Individual body weights were collected on days 0, 7, 21 and 35. Pen weights were collected on days 14 and 28. Feed weigh backs for each pen were done on days 7, 14, 21, 28 and 35 of the study. Average bird weights and feed intake per pen were used to calculate weekly values of average daily gain and feed conversion ratios. Weekly values were compared between treatments using the Mann Whitney U test. On days 7, 21 and 35 three birds per pen were randomly selected and euthanized for the collection of cecal contents and blood. Blood was collected via wing vein venipuncture, except for birds that were too small, in which cases direct heart puncture was used. In both cases, blood was collected into vacutainer tubes and centrifuged to obtain serum. Cecal samples were collected by aseptically squeezing the cecum content into a sterile tube. Cecal samples were placed on dry ice immediately after collection. All samples were stored at −80° C. until processing.

Compound | effect on AMR gene abundance profiles [1] | AMR gene classes changed compared to controls [1] | total number of different AMR genes detected [1] | similarity of 16S cecal microbiome composition to control samples (ANOSIM R score) (cecal microbiome [2]) | functional processes enriched in cecal microbiome relative to controls (GSEA) (cecal microbiome [3]) | impact on bird performance (Ross 708 male broilers) | total AMR gene abundance compared to control [1] | Salmonella and Escherichia relative abundance in cecum (cecal microbiome [3]; day 35)
COC[C@H]1O[C@@H](OC2OC[C@@H]3O[C@]4(O[C@H]3[C@H]2OC(=O)C(C)C)O[C@H](C)[C@@](O)(C(C)=O)[C@@H]2OCO[C@H]24)[C@@H](OC)[C@@H](O)[C@@H]1O[C@@H]1O[C@H](C)[C@H](OC)[C@H](O[C@H]2C[C@@]3(C)OC4(C[C@@H](O)[C@H](O[C@H]5C[C@@H](O)[C@H](OC(=O)c6c(C)c(Cl)c(O)c(Cl)c6OC)[C@@H](C)O5)[C@@H](C)O4)O[C@@H]3[C@@H](C)O2)[C@H]1O (stereo partly drawn) [avilamycin] | minor | reduced the abundance of genes associated with resistance to nucleosides and macrolides | higher | higher similarity | protein synthesis and the Entner-Doudoroff pathway; also recorded: methionine metabolism, glycolysis, sporulation, and isoprenoid synthesis | smallest effects on performance | – | –
virginiamycin | significantly different AMR gene abundance profiles | enriched (Mann-Whitney U p-value<0.05) for genes involved in resistance to multiple drugs | higher | – | betaine and pyridoxine biosynthesis, stress response, bacterial secretion systems, antimicrobial resistance (AMR), and biosynthesis of Gram-negative cell wall components | increased performance compared to controls | significant increase | ~50%
Bacitracin methylene disalicylate [BMD] | minor | – | – | higher similarity | biotin synthesis; also recorded: propanediol utilization, molybdenum-containing cofactor synthesis and CO2 fixation via the Wood-Ljungdahl pathway; also recorded: protein synthesis and the Entner-Doudoroff pathway | smallest effects on performance | significant increase | –

From patent publication US20250163522A1, “METHODS FOR PRESERVING HEALTHY INTESTINAL MICROBIOME DURING GROWTH PROMOTER ADMINSTRATION” (BIOMEDIT, LLC, priority 2022, published 2025)
